The values that follow come from patent US7109231B2, “Cyclohept[b]indole derivatives” (Eli Lilly and Company, priority 2001, dated 2006).

Each structure is given as a SMILES string.

The IC50 is the midpoint of a concentration-inhibition curve.

In this test the target is T1, recombinant human secreted phospholipase A2 (Homo sapiens, UniProt P14555).
T1 sequence (P14555 21-144): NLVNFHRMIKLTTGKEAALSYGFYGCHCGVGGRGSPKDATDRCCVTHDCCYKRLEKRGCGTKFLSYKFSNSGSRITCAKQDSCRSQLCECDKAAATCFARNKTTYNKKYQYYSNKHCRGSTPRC
The experiment in a line: chromogenic assay for inhibitors of recombinant human secreted phospholipase A2. It counts as biochemical. As to conditions: diheptanoyl thio-PC substrate, pH 7.5, 40° C. for 30 minutes, absorbance at 405 nanometers, titrated in triplicate. An excerpt:
The following chromogenic assay procedure was used to identify and evaluate inhibitors of recombinant human secreted phospholipase A2. The assay described herein has been adapted for high volume screening using 96 well microtiter plates. A general description of this assay method is found in the article, “Analysis of Human Synovial Fluid Phospholipase A2 on Short Chain Phosphatidylcholine-Mixed Micelles: Development of a Spectrophotometric Assay Suitable for a Microtiterplate Reader”, by Laure J. Reynolds, Lori L. Hughes, and Edward A Dennis, Analytical Biochemistry, 204, pp. 190–197, 1992 (the disclosure of which is incorporated herein by reference): […]
A measured volume of racemic dipheptanoyl thio PC supplied in chloroform at a concentration of 100 mg/ml is taken to dryness and redissolved in 10 millimolar TRITON X-100™ nonionic detergent aqueous solution. […]
• 1. […] Read absorbance of wells at 405 nanometers with an automatic plate reader.
Tests were done in triplicate. […] Compounds initially found to be active were re-assayed to confirm their activity and, if sufficiently active, IC50 values were determined. […] In all cases, % inhibition measured at 405 nanometers generated by enzyme reactions containing inhibitors relative to the uninhibited control reactions was determined. […]

With `NC(=O)C1CCCCc2c1c1c(OCC(=O)O)cccc1n2Cc1ccccc1` (stereo not shown) [Example 1, (5-Benzyl-10-carbamoyl-5,6,7,8,9,10-hexahydro-cyclohepta[b]indol-1-yloxy)acetic Acid], the IC50 came to 0.248 µM.
